Laboratory results taken from paper PMC10636063, “Progesterone activation of β1-containing BK channels involves two binding sites” (Nature Communications, 2023).
“And” between values parts separate entries of the source, which are not always exact repeats. Identical values can stand only once.

How the values were obtained:
Design in all cases: species or system mouse
[1] = test system: de-endothelialized MCA segments of KCNMB1-/- mice permeabilized with β1 constructs; assay: Cerebral artery diameter in vitro, KCNMB1-/- MCA permeabilized with β1 constructs; details: Y32V and W163I substitutions; 50 mM EtOH
Source text: Eight-12 week-old C57BL/6J and KCNMB1^−/− on C57BL/6 background mice of both sexes were deeply anesthetized with isoflurane via inhalation in a tightly sealed jar. […] For de-endothelialized records, the endothelium was removed by passing an air bubble into the vessel lumen for 90 s[30]. This method has been consistently used by our group and validated using endothelium-dependent versus endothelium-independent vasodilators[16],[26]. Arteries were cannulated as previously described by our group[26],[40]. […] PSS was continuously bubbled with an O2/CO2/N2 (21/5/74%) gas mixture and maintained at 35–37 °C. The artery external wall diameter was measured using the automatic edge-detection function of lonWizard software (lonOptix) via Sanyo VCB-3512T camera (Sanyo Electric Co.). Arteries were first incubated at an intravascular pressure of 10 mm Hg for 10 min. Then intravascular pressure was increased to 60 mmHg and held steady throughout the experiment to induce myogenic tone development and maintenance[19],[30],[51]. […] To determine arterial viability, arterial contractility was probed with a high KCl solution at the end of each experiment. […] Like PSS, the high-KCl solution was continuously bubbled with O2/CO2/N2 (21/5/74%) gas mixture and maintained at 35–37 °C. […]

[2] = test system: de-endothelialized, pressurized MCA segments (C57BL/6 male); assay: EtOH-induced constriction of pressurized MCA in vitro; details: for change in artery diameter (EtOH-induced constriction): Fig 8B, individual replicates
Source text: Eight-12 week-old C57BL/6J and KCNMB1^−/− on C57BL/6 background mice of both sexes were deeply anesthetized with isoflurane via inhalation in a tightly sealed jar. Resistance size MCAs (~100 μm in external diameter) were dissected out of the mouse brains after animal euthanasia with sharp scissors. For de-endothelialized records, the endothelium was removed by passing an air bubble into the vessel lumen for 90 s[30]. This method has been consistently used by our group and validated using endothelium-dependent versus endothelium-independent vasodilators[16],[26]. Arteries were cannulated as previously described by our group[26],[40]. MCAs were cut into 5 to 10 mm-long segments under a microscope (Nikon SMZ645). The segment was cannulated at each end, and the artery exterior was continuously perfused with physiologic sodium saline (PSS) of the following composition (mM): 119 NaCl, 4.7 KCl, 1.2 KH2PO4, 1.6 CaCl2, 1.2 MgSO4, 0.023 EDTA, 11 glucose, 24 NaHCO3, pH=7.4. PSS was continuously bubbled with an O2/CO2/N2 (21/5/74%) gas mixture and maintained at 35–37 °C. The artery external wall diameter was measured using the automatic edge-detection function of lonWizard software (lonOptix) via Sanyo VCB-3512T camera (Sanyo Electric Co.). Arteries were first incubated at an intravascular pressure of 10 mm Hg for 10 min. Then intravascular pressure was increased to 60 mmHg and held steady throughout the experiment to induce myogenic tone development and maintenance[19],[30],[51]. Each artery segment was exposed to PROG, PROG-oxime (in presence and absence of 1 µM paxilline) only once to avoid development of desensitization during repeated applications of PROG-containing solution. To determine arterial viability, arterial contractility was probed with a high KCl solution at the end of each experiment. The high KCl solution was composed of the following composition (mM): 63.7 NaCl, 60 KCl, 1.2 KH2PO4, 1.2 MgSO4, 0.023 EDTA, 11 glucose, 24 NaHCO3, 1.6 CaCl2, pH=7.4. Like PSS, the high-KCl solution was continuously bubbled with O2/CO2/N2 (21/5/74%) gas mixture and maintained at 35–37 °C.

MCA branches (C57BL/6J) = assay: EtOH-induced cerebrovascular constriction in vivo (cranial window); details: individual replicates; for artery diameter, normalized to time 0: Fig 8E
Experimental: Eight-12 week-old male and female C57BL/6J mice were anesthetized with a mixture of xylazine/ketamine (12/100 mg per kg) and kept anesthetized for the duration of the experiment with subsequent ketamine doses (50 mg/kg of weight) as needed. A catheter was inserted into the carotid artery so that the infusion went straight to the brain rather than towards the thoracic cavity. An area of the skull was cleared of tissue and thinned to expose the branching arteries originating from the MCA on the side the catheter was inserted, above the zygomatic arch, between the ear and eye of the skull[19],[34]. The exposed arteries branching out from the MCA were monitored using a Leica MC170 HD microscope with a mounted camera (Leica M125 C) connected to a computer monitor. Drugs were diluted to their final concentration in sodium saline (0.9% NaCl) and administered via catheter at 0.1 ml/25 g of weight. Cranial window images before and after drug administration were acquired every 60 seconds for subsequent analysis.

`CCO` [EtOH, ethanol] was tested, and the “constriction of MCA” value [1] was “constriction was still observed”, the “EtOH concentration close to EC100 for MCA constriction” value [2] was about 50 mM and the “change in artery diameter (EtOH-induced constriction)” value (from here on “change in artery diameter”) ([2]; EtOH 10mM) was -3.481 and -2.957 and -4.155 and -5.135 and -0.8602. The “change in artery diameter” value ([2]; EtOH 35mM) was -3.0303 and -4.876 and -3.6836 and -8.271 and -6.594, the “change in artery diameter” value ([2]; EtOH 50mM) was -6.879 and -7.897 and -7.7 and -14.4262 and -10.9422 and the “change in artery diameter” value ([2]; EtOH 75mM) was -7.692 and -11.3856 and -9.864 and -10.7879 and -9.705. The “artery diameter, normalized to time 0” value (MCA branches (C57BL/6J); time 0) was 1 (5×) and 0.9973, the “artery diameter, normalized to time 0” value (MCA branches (C57BL/6J); time 1) was 1 (2×) and 0.9893 and 0.9693 and 1.069 and 0.888 and the “artery diameter, normalized to time 0” value (MCA branches (C57BL/6J); time 2) was 0.8687 and 0.8304 and 0.7155 and 0.777 and 1.057 and 0.6934. For the same compound, the “artery diameter, normalized to time 0” value (MCA branches (C57BL/6J); time 3) was 0.7831 and 1 and 0.7857 and 0.8444 and 1.014 and 0.8086, the “artery diameter, normalized to time 0” value (MCA branches (C57BL/6J); time 4) was 0.7004 and 0.7657 and 0.7155 and 0.7188 and 0.9449 and 0.6934 and the “artery diameter, normalized to time 0” value (MCA branches (C57BL/6J); time 5) was 0.6515 and 0.8304 and 0.7857 and 0.7691 and 0.9335 and 0.8086. The “artery diameter, normalized to time 0” value (MCA branches (C57BL/6J); time 6) was 0.7831 and 1 and 0.8849 and 0.8691 and 0.8118 and 0.8086, the “artery diameter, normalized to time 0” value (MCA branches (C57BL/6J); time 7) was 0.7397 and 0.7657 and 0.8849 and 0.7997 and 0.85 and 0.8086 and the “artery diameter, normalized to time 0” value (MCA branches (C57BL/6J); time 8) was 0.7004 and 1 and 0.9584 and 0.8381 and 0.823 and 0.6934. For the same compound, the “artery diameter, normalized to time 0” value (MCA branches (C57BL/6J); time 9) was 0.6515 and 0.9469 and 0.8849 and 0.7942 and 0.8049 and 0.6934, the “artery diameter, normalized to time 0” value (MCA branches (C57BL/6J); time 10) was 0.6515 and 1 and 0.8849 and 0.8075 and 0.8892 and 0.6934 and the “artery diameter, normalized to time 0” value (MCA branches (C57BL/6J); time 11) was 0.7831 and 1 and 0.8231 and 0.8249 and 0.8605 and 0.6934. The “artery diameter, normalized to time 0” value (MCA branches (C57BL/6J); time 12) was 0.7004 and 0.9469 and 0.9893 and 0.8811 and 0.8191 and 0.888, the “artery diameter, normalized to time 0” value (MCA branches (C57BL/6J); time 13) was 0.6515 and 0.8304 and 0.8849 and 0.7651 and 0.797 and 0.6934 and the “artery diameter, normalized (group comparison)” value (MCA branches (C57BL/6J); Fig 8F) was 0.6886 and 0.733 and 0.6331 and 0.6127 and 0.7046 and 0.7541.
